Data from US20260184710A1, “CASITAS B-LINEAGE LYMPHOMA PROTOONCOGENE B (CBL-B) DEGRADING COMPOUNDS AND ASSOCIATED METHODS OF USE” (Arvinas Operations, Inc., priority 2022, published 2026).

Columns and labels:
Cbl-b [1] = target: T1, Cbl-b (Homo sapiens, UniProt Q13191); test: Cbl-b Degradation Method A (FACS, anti-Cbl-b antibody staining); format: cell-based; settings: Cbl-b-HiBit KI Jurkat Cells, incubated at least 20 hours; for DC50: half maximal degradation, read-out: Cbl-b Degredation Method A IC50; for Dmax: Jurkat, maximum degradation observed, read-out: Cbl-b Degredation Method A Dmax (%)
T1 construct: Cbl-b-HiBit KI Jurkat Cells were purchased from Promega; host or cells: Cbl-b-HiBiT knock-in Jurkat cells
In short: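 Cbl-b-HiBit KI Jurkat cells treated with compound for at least 20 h at 37 °C, then fixed, permeabilized and stained with anti-Cbl-b antibody plus anti-rabbit AF488 secondary. Cbl-b levels read by FACS; DC50 and Dmax (percent of control) derived.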

Cbl-b [2] = target: T1, Cbl-b; test: Cbl-b Degradation Method B (Nano-Glo HiBiT lytic detection); format: cell-based; settings: Cbl-b-HiBit KI Jurkat Cells, incubated at least 6-24 hours; for DC50: half maximal degradation, read-out: Cbl-b Degredation Method B IC50; for Dmax / Cbl-b Degredation Method B Dmax (%): maximum degradation observed; for Dmax: read-out: Cbl-b Degredation Method B Dmax (%)
In short: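 Cbl-b-HiBiT knock-in Jurkat cells (20,000/well) were treated after ~24 h plating with an 11-point 1:3 series for 6-24 h at 37° C. Remaining Cbl-b measured by Nano-Glo HiBiT lytic luminescence. DC50 and Dmax expressed as % of control.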

T1 sequence (Q13191 whole entry): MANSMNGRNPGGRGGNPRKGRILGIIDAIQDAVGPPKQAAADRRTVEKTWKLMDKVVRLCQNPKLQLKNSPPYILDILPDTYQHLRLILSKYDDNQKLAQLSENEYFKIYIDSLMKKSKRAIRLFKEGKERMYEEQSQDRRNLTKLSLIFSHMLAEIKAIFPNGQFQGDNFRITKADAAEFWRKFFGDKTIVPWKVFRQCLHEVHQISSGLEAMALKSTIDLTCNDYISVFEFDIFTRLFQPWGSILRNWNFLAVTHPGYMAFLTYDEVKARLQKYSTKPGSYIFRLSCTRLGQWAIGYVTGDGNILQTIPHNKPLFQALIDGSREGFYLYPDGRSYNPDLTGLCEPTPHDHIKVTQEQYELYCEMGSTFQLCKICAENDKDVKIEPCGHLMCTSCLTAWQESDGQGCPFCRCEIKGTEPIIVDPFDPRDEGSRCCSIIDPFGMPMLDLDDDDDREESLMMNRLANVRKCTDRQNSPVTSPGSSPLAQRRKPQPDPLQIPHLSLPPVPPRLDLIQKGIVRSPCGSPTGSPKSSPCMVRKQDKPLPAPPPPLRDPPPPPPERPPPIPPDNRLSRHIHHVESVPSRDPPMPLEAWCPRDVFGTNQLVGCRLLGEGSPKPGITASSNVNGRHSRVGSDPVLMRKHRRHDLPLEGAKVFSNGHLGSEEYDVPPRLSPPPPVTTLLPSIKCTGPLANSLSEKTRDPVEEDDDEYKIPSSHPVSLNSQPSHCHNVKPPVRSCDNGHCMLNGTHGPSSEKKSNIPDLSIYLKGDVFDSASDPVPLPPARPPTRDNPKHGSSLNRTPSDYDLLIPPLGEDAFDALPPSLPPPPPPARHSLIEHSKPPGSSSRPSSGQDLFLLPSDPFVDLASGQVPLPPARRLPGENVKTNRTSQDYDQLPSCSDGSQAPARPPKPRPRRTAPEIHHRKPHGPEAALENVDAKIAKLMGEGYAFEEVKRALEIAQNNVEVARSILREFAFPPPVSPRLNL

Compound | DC50 (Cbl-b [1]) [nM] | Dmax (Cbl-b [1]) [%] | DC50 (Cbl-b [2]) [nM] | Dmax (Cbl-b [2]) [%] | Cbl-b Degredation Method B Dmax (%) (Cbl-b [2])
Cn1cnnc1CC1(c2cccc(N3Cc4c(cc(CN5CCC(CN6CCN(c7ccc8c(c7)C(=O)N(C7CCC(=O)NC7=O)C8=O)CC6)CC5)cc4C(F)(F)F)C3=O)c2)COC1 (centres unmarked) [Example 28, 2-(2,6-dioxopiperidin-3-yl)-5-{4-[(1-{[2-(3-{3-[(4-methyl-4H-1,2,4-triazol-3-yl)methyl]oxetan-3-yl}phenyl)-3-oxo-7-(trifluoromethyl)-2,3-dihydro-1H-isoindol-5-yl]methyl}piperidin-4-yl)methyl]piperazin-1-yl}-2,3-dihydro-1H-isoindole-1,3-dione] | > 500 | – | > 500 | – | –
Cn1cnnc1CC1(c2cccc(N3Cc4c(cc(CN5CCC[C@H](CN6CCC(CC7CCN(c8ccc9c(c8)C(=O)N(C8CCC(=O)NC8=O)C9=O)CC7)CC6)C5)cc4C(F)(F)F)C3=O)c2)COC1 (stereo partly drawn) [Example 111, 2-(2,6-dioxopiperidin-3-yl)-5-{4-[(1-{[(3R)-1-{[2-(3-{3-[(4-methyl-4H-1,2,4-triazol-3-yl)methyl]oxetan-3-yl}phenyl)-3-oxo-7-(trifluoromethyl)-2,3-dihydro-1H-isoindol-5-yl]methyl}piperidin-3-yl]methyl}piperidin-4-yl)methyl]piperidin-1-yl}-2,3-dihydro-1H-isoindole-1,3-dione] | 50 to 500 | – | > 500 | – | –
Cn1cnnc1CC1(c2cccc(N3Cc4c(cc(N5CCC(C6CCN(c7ccc8c(c7)C(=O)N(C7CCC(=O)NC7=O)C8=O)CC6)CC5)cc4C(F)(F)F)C3=O)c2)COC1 (centres unmarked) [Example 124, 2-(2,6-dioxopiperidin-3-yl)-5-{1′-[2-(3-{3-[(4-methyl-4H-1,2,4-triazol-3-yl)methyl]oxetan-3-yl}phenyl)-3-oxo-7-(trifluoromethyl)-2,3-dihydro-1H-isoindol-5-yl]-[4,4′-bipiperidin]-1-yl}-2,3-dihydro-1H-isoindole-1,3-dione] | > 500 | – | > 500 | – | –
Cn1cnnc1CC1(c2cccc(N3Cc4c(cc(CN5CCC[C@@H](CN6CCN(C[C@H]7CC[C@H](OC8CCN(c9ccc%10c(c9F)CN(C9CCC(=O)NC9=O)C%10=O)CC8)CC7)CC6(C)C)C5)cc4C(F)(F)F)C3=O)c2)COC1 (stereo partly drawn) [Example 286, 3-[4-fluoro-1-oxo-5-(4-{[(1r,4r)-4-[(3,3-dimethyl-4-{[(3R)-1-{[2-(3-{3-[(4-methyl-4H-1,2,4-triazol-3-yl)methyl]oxetan-3-yl}phenyl)-3-oxo-7-(trifluoromethyl)-2,3-dihydro-1H-isoindol-5-yl]methyl}piperidin-3-yl]methyl}piperazin-1-yl)methyl]cyclohexyl]oxy}piperidin-1-yl)-2,3-dihydro-1H-isoindol-2-yl]piperidine-2,6-dione] | 50 to 500 | 35 to 70 | < 5 | – | C (C ≤ 35)
Cn1cnnc1CC1(c2cccc(N3Cc4c(cc(CN5CCN(C[C@H]6CC[C@H](OC7CCN(c8cccc9c8CC(=O)N9C8CCC(=O)NC8=O)CC7)CC6)CC5(C)C)cc4C(F)(F)F)C3=O)c2)CC(C#N)C1 (some centres unmarked) [Example 315, (1r**,3r**)-3-(3-{6-[(2,2-dimethyl-4-{[(1r*,4r*)-4-({1-[1-(2,6-dioxopiperidin-3-yl)-2-oxo-2,3-dihydro-1H-indol-4-yl]piperidin-4-yl}oxy)cyclohexyl]methyl}piperazin-1-yl)methyl]-1-oxo-4-(trifluoromethyl)-2,3-dihydro-1H-isoindol-2-yl}phenyl)-3-[(4-methyl-4H-1,2,4-triazol-3-yl)methyl]cyclobutane-1-carbonitrile] | 50 to 500 | 35 to 70 | < 5 | – | C (C ≤ 35)

Now from value to compound:

DC50 (Cbl-b [1]) [nM] | Dmax (Cbl-b [1]) [%] | DC50 (Cbl-b [2]) [nM] | Dmax (Cbl-b [2]) [%] | Cbl-b Degredation Method B Dmax (%) (Cbl-b [2]) | Compound
< 5 | > 70 | < 5 | 35 to 70 | – | COc1c(N2CCC(O[C@H]3CC[C@H](CN4CCN(Cc5cc6c(c(C(F)(F)F)c5)CN(c5cccc([C@]7(Cc8nncn8C)C[C@@H](C#N)C7)c5)C6=O)CC4)CC3)CC2)ccc2c1CN(C1CCC(=O)NC1=O)C2=O (some centres unmarked) [Example 199, (1r,3r)-3-[(4-methyl-4H-1,2,4-triazol-3-yl)methyl]-3-(3-{1-oxo-6-[(4-{[(1r,4r)-4-({1-[2-(2,6-dioxopiperidin-3-yl)-4-methoxy-1-oxo-2,3-dihydro-1H-isoindol-5-yl]piperidin-4-yl}oxy)cyclohexyl]methyl}piperazin-1-yl)methyl]-4-(trifluoromethyl)-2,3-dihydro-1H-isoindol-2-yl}phenyl)cyclobutane-1-carbonitrile]
50 to 500 | > 70 | < 5 | – | C (C ≤ 35) | Cn1cnnc1CC1(c2cccc(N3Cc4c(cc(CN5CCN(C[C@H]6CC[C@H](OC7CCN(c8ccc9c(c8)CC(=O)N9C8CCC(=O)NC8=O)CC7)CC6)CC5(C)C)cc4C(F)(F)F)C3=O)c2)CC(C#N)C1 (some centres unmarked) [Example 316, (1r**,3r**)-3-(3-{6-[(2,2-dimethyl-4-{[(1r*,4r*)-4-({1-[1-(2,6-dioxopiperidin-3-yl)-2-oxo-2,3-dihydro-1H-indol-5-yl]piperidin-4-yl}oxy)cyclohexyl]methyl}piperazin-1-yl)methyl]-1-oxo-4-(trifluoromethyl)-2,3-dihydro-1H-isoindol-2-yl}phenyl)-3-[(4-methyl-4H-1,2,4-triazol-3-yl)methyl]cyclobutane-1-carbonitrile]
50 to 500 | – | > 500 | – | – | CC1CC(N2CCC(CC3CCN(c4ccc5c(c4)C(=O)N(C4CCC(=O)NC4=O)C5=O)CC3)CC2)CN(Cc2cc3c(c(C(F)(F)F)c2)CN(c2cccc(C4(Cc5nncn5C)COC4)c2)C3=O)C1 (centres unmarked) [Example 95, 2-(2,6-dioxopiperidin-3-yl)-5-{4-[(5′-methyl-1′-{[2-(3-{3-[(4-methyl-4H-1,2,4-triazol-3-yl)methyl]oxetan-3-yl}phenyl)-3-oxo-7-(trifluoromethyl)-2,3-dihydro-1H-isoindol-5-yl]methyl}-[1,3′-bipiperidin]-4-yl)methyl]piperidin-1-yl}-2,3-dihydro-1H-isoindole-1,3-dione]
< 5 | 35 to 70 | < 5 | 35 to 70 | – | Cn1cnnc1CC1(c2cccc(N3Cc4c(cc(N5CC6(CCN(CC7CCN(c8ccc9c(c8F)CN(C8CCC(=O)NC8=O)C9=O)CC7)CC6)C5)cc4C(F)(F)F)C3=O)c2)COC1 (centres unmarked) [Example 1, 3-{4-fluoro-5-[4-({2-[2-(3-{3-[(4-methyl-4H-1,2,4-triazol-3-yl)methyl]oxetan-3-yl}phenyl)-3-oxo-7-(trifluoromethyl)-2,3-dihydro-1H-isoindol-5-yl]-2,7-diazaspiro[3.5]nonan-7-yl}methyl)piperidin-1-yl]-1-oxo-2,3-dihydro-1H-isoindol-2-yl}piperidine-2,6-dione]
< 5 | 35 to 70 | < 5 | 35 to 70 | – | CC1c2nc(N3CCC(O[C@H]4CC[C@H](CN5CCN(Cc6cc7c(c(C(F)(F)F)c6)CN(c6cccc([C@]8(Cc9nncn9C)C[C@@H](C#N)C8)c6)C7=O)CC5)CC4)CC3)ccc2C(=O)N1C1CCC(=O)NC1=O (some centres unmarked) [Example 203, (1r,3r)-3-[(4-methyl-4H-1,2,4-triazol-3-yl)methyl]-3-(3-{1-oxo-6-[(4-{[(1r,4r)-4-({1-[6-(2,6-dioxopiperidin-3-yl)-7-methyl-5-oxo-5H,6H,7H-pyrrolo[3,4-b]pyridin-2-yl]piperidin-4-yl}oxy)cyclohexyl]methyl}piperazin-1-yl)methyl]-4-(trifluoromethyl)-2,3-dihydro-1H-isoindol-2-yl}phenyl)cyclobutane-1-carbonitrile]
